Assay results published in patent US6420174B1, “Method of producing organogenetic tissue from a plant of the genus Mentha” (Council of Scientific and Industrial Research, priority 2000, dated 2002).

How the values were obtained:
Root pieces = assay: Response of other explants in different media: root pieces; type: cell-based, Mentha arvensis
Description: (§1) In the next phase, the callus was sub cultured in three different media: i) the basal medium MSO containing only the vitamins and minerals without any growth hormones; ii) MSA-2 medium which is MSO with 0.2 μg ml^−1 concentration of NAA and 5 μg ml^−1 of a cytokinin BAP; and iii) MT-80 medium which is MSO with only 80 μg ml^−1 menthol. On each kind of these media, an independent callus (50 mg ) or 5 independently regenerated shoots were inoculated per flask in 5 replications each. The experiment was conducted in the completely randomized design (CRD) fashion. Cultures were incubated and maintained at 25±2° C. and 400-600 lux light intensity with 16-hour photoperiod. The response was recorded every 24 hours over a period of one week and then weekly upto one month.
(§2) At this stage, the applicants wanted to know whether any other parts of the plant (explants) show similar response as callus and lead to direct regeneration. In the same experimental design we inoculated different parts of the plant in different media and the observations were recorded after 7 and 15 days.

[1] = tested on: regenerated shoots of Mentha arvensis; assay: Response of regenerated shoots in different media; type: cell-based; settings: Mentha arvensis L. cv. Himalaya, 7 days
Source text: (§3) The plant variety used in these experiments was cv. Himalaya (U.S. Pat No. PP10935) of Mentha arvensis L. (2n=96). The suckers of M. arvensis L. cv. Himalaya for multiplication of the plant material and future experimentation were obtained from CIMAP's gene bank. For callus production, the explant material was collected from the field grown plants and surface sterilized by washing sequentially with 2% detergent, distilled water containing a few drops of Savlon (Johnson and Johnson, India), 0 1% acidified mercuric chloride and autoclaved distilled water before inoculation. About 1 cm long internode pieces were inoculated in the Murashige and Skoog medium (Murashige T, Skoog F; 1962. A revised medium for rapid growth and bioassay with tobacco tissue cultures. Physiol Planta, 15:473-497) supplemented with 0.2 μg ml^−1 of an auxin (NAA, 1-napthalene acetic acid) and 5 μg ml^−1 of a cytokinin (BAP, benzyl aminopurine). […]
(§4) In the next phase, the callus was sub cultured in three different media: i) the basal medium MSO containing only the vitamins and minerals without any growth hormones; ii) MSA-2 medium which is MSO with 0.2 μg ml^−1 concentration of NAA and 5 μg ml^−1 of a cytokinin BAP; and iii) MT-80 medium which is MSO with only 80 μg ml^−1 menthol. […] The response was recorded every 24 hours over a period of one week and then weekly upto one month. […]

Internodes = assay: Response of other explants in different media: internodes; type: cell-based, Mentha arvensis; settings: 7 days
Description: as §1, §2

[2] = tested on: in vitro raised somaclones (shootlets); assay: Earlier screening of in vitro raised somaclones in medium containing toxic concentrations of menthol; type: cell-based, Mentha arvensis; settings: above 70 μg ml^−1 in the medium
Description: The applicants earlier developed a protocol for screening high menthol yielding plants by inoculating the in vitro raised somaclones in medium containing toxic concentrations of menthol in the tissue culture medium (Patent pending). In this procedure, screening of 2850 variants yielded 30 clones surviving 70 μg ml^−1 of menthol concentration in the medium out of which only 5 stable clones could be isolated which were of high menthol content type in comparison to the parent variety ‘Himalaya’ (U.S. Pat No. PP 10935). […] At this point, the applicants planned experiments to subject the callus directly to menthol selection instead of the regenerated shoots to save on time, space and labour. The logic was to isolate the tolerant cell lines if any, growing from this callus later.

Mentha arvensis callus = assay: Shooting response of callus in different media; type: cell-based, Mentha arvensis L. cv. Himalaya
Source text: as §3, §4

regenerated shoots = assay: Characteristics and growth of regenerated shoots (leaf dimensions); type: cell-based, Mentha arvensis; settings: medium containing 80 μg ml^−1 of menthol
Description: as §1
The leaves were also larger in the shoots regenerated on the medium containing 80 μg ml^−1 of menthol (Table 4).

Compound: CC1CCC(C(C)C)C(O)C1 (stereo not shown) [menthol]
- Response of root pieces (Root pieces; MSO + 60 ppm menthol, 7 days): No change
- Response of root pieces (Root pieces; MSO + 70 ppm menthol, 7 days): No change
- Response of root pieces (Root pieces; MSO + 70 ppm menthol, 15 days): Wilting started
- Response of root pieces (Root pieces; MSO + 80 ppm menthol, 7 days): Wilting
- Response of root pieces (Root pieces; MSO + 80 ppm menthol, 15 days): Wilting
- Toxic concentration at which the regenerated shoots die [1]: ≥ 80 µg/mL
- Response of internodes (Internodes; MSO + 60 ppm menthol): Green
- Response of internodes (Internodes; MSO + 70 ppm menthol): Green
- Response of internodes (Internodes; MSO + 80 ppm menthol): Wilting
- Effect on shootlets of increasing menthol concentration further [2]: killed all the shootlets
- Time to visible shoot induction from callus (Mentha arvensis callus; MSO medium containing menthol 80 μg ml^−1): 7 to 10 days
- Response of transferred callus pieces (Mentha arvensis callus; text of Example 2, up to 21 days): induced shoot regeneration
- Growth of menthol-induced shoots compared to shoots growing on other media (regenerated shoots): more vigorous in growth
